# Experimental data taken from US6521631B2, “Heterocyclic sulfonamides” (Hoffmann-La Roche Inc., priority 1999, dated 2003).
# Columns and labels:
# [1] = biological target: T1, human ETA receptors (Homo sapiens, UniProt P25101); assay: Inhibition of 125I-endothelin binding to recombinant human ETA receptors expressed in Baculovirus-infected insect cells; conditions: recombinant human ETA receptor membranes, 20 pM 125I-endothelin; read-out: IC50, concentration required to inhibit 50% of the specific binding of 125I-endothelin
# T1 construct: made in house; host or cells: Baculovirus-infected insect cells (membrane preparation)
# T1 sequence (P25101 21-427): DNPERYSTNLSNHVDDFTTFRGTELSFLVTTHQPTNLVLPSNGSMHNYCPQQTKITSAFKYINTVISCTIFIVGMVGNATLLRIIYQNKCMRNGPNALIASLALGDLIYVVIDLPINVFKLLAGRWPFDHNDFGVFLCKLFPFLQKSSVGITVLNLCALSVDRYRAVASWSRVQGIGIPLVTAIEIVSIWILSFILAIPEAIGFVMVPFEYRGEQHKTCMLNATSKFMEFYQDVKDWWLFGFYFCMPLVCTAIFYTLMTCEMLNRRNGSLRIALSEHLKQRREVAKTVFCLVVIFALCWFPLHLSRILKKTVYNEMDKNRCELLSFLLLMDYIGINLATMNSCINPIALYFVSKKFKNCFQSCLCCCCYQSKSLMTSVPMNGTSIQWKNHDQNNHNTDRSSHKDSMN
# Procedure: I. Inhibition of Endothelin Binding to Recombinant Human ETA Receptors Expressed in Baculovirus-infected Insect Cells
# A cDNA coding for human ETA receptors of human placenta was cloned (M. Adachi, Y.-Y. Yang, Y. Furuichi and C. Miyamoto, BBRC 180, 1265-1272) and expressed in the Baculovirus-insect cell system. Baculovirus-infected insect cells from a 23 l fermenter are centrifuged off (3000×g, 15 minutes, 4° C.) 60 hours after the infection, re-suspended in Tris buffer (5 mM, pH 7.4, 1 mM MgCl2) and again centrifuged. After a further re-suspension and centrifugation the cells are suspended in 800 ml of the same buffer and freeze-dried at −120° C. The cells disintegrate when the suspension in this hypotonic buffer mixture is thawed. After a repeated […]/thawing cycle the suspension is homogenised and centrifuged (25000×g, 15 minutes, 4° C.). After suspension in Tris buffer (75 mM, pH 7.4, 25 mM MgCl2, 250 mM sucrose) 1 ml aliquots (protein content about 3.5 mg/ml) are stored at −85° C.
# For the binding assay, the freeze-dried membrane preparations are thawed and, after centrifugation at 20° C. and 25000 g for 10 minutes, re-suspended in assay buffer (50 mM Tris buffer, pH 7.4, containing 25 mM MnCl2, 1 mM EDTA and 0.5% bovine serum albumin). 100 μl of this membrane suspension containing 70 μg of protein are incubated with 50 μl of ^125I-endothelin (specific activity 2200 Ci/mMol) in assay buffer (25000 cpm, final concentration 20 pM) and 100 μl of assay buffer containing varying concentrations of test compound. The incubation is carried out at 20° C. for 2 hours or at 4° C. for 24 hours. The separation of free and membrane-bound radio-ligands is carried out by filtration over a glass fibre filter. The inhibitory activity of compounds of formula (I) determined in this test procedure is given in Table 1 as the IC50, i.e. as the concentration [nM] which is required to inhibit 50% of the specific binding of ^125I-endothelin.
# [2] = tested on: isolated rat aorta rings; conditions: for pA2: shift to the right of the endothelin-1 dosage-activity curve, endothelium-denuded thorax aorta rings
# Procedure: Inhibition of Endothelin-induced Contractions in Isolated Rat Aorta Rings
# Rings with a length of 5 mm were cut out from the thorax aorta of adult Wistar-Kyoto rats. The endothelium was removed by lightly rubbing the internal surface. Each ring was immersed at 37° C. in 10 ml of Krebs-Henseleit solution in an isolated bath while gassing with 95% O2 and 5% CO2. The isometric stretching of the rings was measured. The rings were stretched to a pre-tension of 3 g. After incubation for 10 minutes with the test compound or vehicle cumulative dosages of endothelin-1 were added. […] This shift to the right (or “dose ratio”, DR) corresponds to the quotient from the EC50 values of endothelin-1 in the presence and in the absence of antagonist, with the EC50 value denoting the endothelin concentration required for a half-maximum contraction.
# The corresponding pA2 value, which is a measure of the activity of the test compound, was calculated using a computer programme according to the following equation from the “dose ratio” DR for each individual dosage-activity curve.
# pA2=log(DR−1)−log(antagonist-concentration)
IC50 [1],melting point,SMILES,pA2 [2],"EC50 ([2]; read-out: EC50 of endothelin in the absence of test compounds, endothelin concentration required for a half-maximum contraction, no antagonist)"
≤ 50 nM,–,"COc1ccccc1Oc1c(NS(=O)(=O)c2ccc(C)cn2)nc(-c2ccncc2)nc1OC [Example 1, 5-methyl-pyridine-2-sulfonic acid[6-methoxy-5-(2-methoxy-phenoxy)-2-pyridin-4-yl-pyrimidin-4-yl]-amide]",≧8.0,–
≤ 50 nM,195 to 197 °C,"COc1ccccc1Oc1c(NS(=O)(=O)c2ccc(C(C)C)cn2)nc(-c2ccncc2)nc1OC [Example 2, 5-isopropyl-pyridine-2-sulfonic acid[6-methoxy-5-(2-methoxy-phenoxy)-2-pyridin-4-yl-pyrimidin-4-yl]-amide]",≧8.0,–
≤ 50 nM,–,"C=C(C)c1ccc(S(=O)(=O)Nc2nc(-c3ccncc3)nc(OC)c2Oc2ccccc2OC)nc1 [Example 3, 5-isopropenyl-pyridine-2-sulfonic acid[6-methoxy-5-(2-methoxy-phenoxy)-2-pyridin-4-yl-pyrimidin-4-yl]-amide]",–,–
–,–,"CC[C@H](C)[C@H](NC(=O)[C@H](CC(=O)O)NC(=O)[C@H](CC(C)C)NC(=O)[C@H](Cc1c[nH]cn1)NC(=O)[C@@H]1CSSC[C@H](N)C(=O)N[C@@H](CO)C(=O)N[C@H]2CSSC[C@H](NC(=O)[C@H](CCC(=O)O)NC(=O)[C@H](CCCCN)NC(=O)[C@H](CC(=O)O)NC(=O)[C@H](CCSC)NC(=O)[C@H](CC(C)C)NC(=O)[C@H](CO)NC(=O)[C@H](CO)NC2=O)C(=O)N[C@@H](C(C)C)C(=O)N[C@@H](Cc2ccc(O)cc2)C(=O)N[C@@H](Cc2ccccc2)C(=O)N1)C(=O)N[C@H](C(=O)N[C@@H](Cc1c[nH]c2ccccc12)C(=O)O)[C@@H](C)CC [endothelin, reference compound]",–,0.3 nM
